For one data set, the target named is TRPV1 receptor (Homo sapiens, UniProt Q8NER1). As to conditions: cited from earlier work.
For data set [1], the system named is oral pain associated with Feline Chronic Gingivostomatitis (FCGS). As to the kind of experiment: Veterinarian Specific Outcome Measures (VSOM) in client-owned cats after oral topical RTX. It counts as in vivo, cat. As to conditions: for treatment success rate (VSOM): Day 28 vs Day 0, success = reduction of at least 2 in total VSOM score. The source says: (§1) Characterize the required dose of RTX applied topically to the oral mucosa for the control of pain associated with Feline Chronic Gingivostomatitis (FCGS).
• Cat less than 12 months of age. • Cat's body weight less than 2 kg. • Cat unlikely to survive a 30-min anesthesia or sedation procedure. • Cat was unlikely to survive 4 weeks due to health issues other than oral pain. • Cat was unavailable for the entire study duration or was felt to be unsuitable by the Investigator for another reason. • Cat was participating in another study • Cat was pregnant or lactating. • Cat underwent an oral surgical procedure within 30 days prior to screening. • Cat received cannabinoid agonists such as cannabidiol (CBD) or anandamide within 28 days of starting the study. • Cat received oral corticosteroids within 1 week of starting the study, or injectable corticosteroids within 6 weeks of starting the study, and/or required medication or supplements during the study that may have interfered with the objective of the study.
Twenty-eight cats, each weighing over 2 kg and over 12 months of age, were enrolled in this study. There was no apparent trend in the ages of cats enrolled in the study. Enrolled cats were physically examined (their physical exam findings such as general appearance, ears/eyes/mouth, abdominal/gastrointestinal, musculoskeletal, neurological urogenital, lymphatic etc. . . . were recorded). Their weight and vital signs were recorded as well.
Veterinarian Specific Outcome Measures (VSOM)—Qualitative assessment of common stomatitis signalment was carried out prior to the beginning of treatment and on day 7, 14, and 28 (at the conclusion of treatment). Cats were assessed for drooling, pain while eating, pain at manipulation and swelling of the oral tissue. Each clinical sign was graded from 1 to 5 (1=no problem; 5=Impossible).
Treatment success was defined as “a reduction of at least 2 in total VSOM score at Day 28 compared to VSOM score at Day 0. A decrease of less than 2, no change, or an increase in total score was defined as treatment failure. Cats presenting an increase in any individual VSOM were considered a treatment failure regardless of total VSOM score. […] The results of each cohort were not compared statistically; only descriptive statistics were generated due to the small number of cats per cohort and lack of randomization. However, there was no evidence of a relationship between treatment success and dose.
(§2) Each animal was randomly assigned to one of three groups. Ten cats (group 1) were treated with 6.25 μg RTX (total) diluted with sterile saline for a total volume of 2 mL. Nine cats (group 2) were treated with 12.5 μg RTX (total) diluted with sterile saline for a total volume of 2 mL. Nine cats (group 3) were treated with 25 μg RTX (total) diluted with sterile saline for a total volume of 2 mL.
RTX solution was applied using a clean cotton tip applicator directly to the visible lesions and adjacent tissue. The non-target dosing areas (caudal mouth/pharynx) were protected using a 4×4 gauze. Any targeted area was dried with sterile gauze or using the air-water syringe system. The saturated applicator for was gently pressed along the targeted areas for 10 seconds. Two to three coats per lesion were applied using the same cotton tip applicator. The area was allowed to dry for a few seconds before moving to the next lesion by exposing the area to the air or by gently using the air-water syringe system. […]

Data set [2] in a line: Safety variables of the FCGS effectiveness study (mortality, adverse events, clinical observations, body weight, ability to eat). It counts as in vivo, cat. An excerpt:
Mortality—No mortality, whether by natural death or euthanasia, occurred on this study.
An adverse event (AE) is defined as any undesirable event, expected or not, occurring to a study animal during the study, regardless of whether the event was considered to have a causal relation to a study treatment. Adverse events were reported at scheduled times during the study from Day 0 to the last day of the study. Certain adverse events, defined as serious adverse events, were reported in an expedited fashion to allow for possible study protocol modifications. A Serious Adverse Event (SAE) is defined as any medical occurrence that results in hospitalization longer than 24 hours or results in significant disability or morbidity or is life threatening or results in death.
Severity, causality and outcome of adverse events were recorded. Causality is a determination of whether there was a reasonable possibility that the drug may have caused or contributed to an AE. This relationship was described as “unlikely”, “possible”, “probable”, “definite”, or “unknown.”
On Day 0, starting once the RTX was applied to all oral lesions (time 0), clinical observations were carried out by the veterinarian at 10, 30, 45, 60 (±5 minutes), as well as at 2 hours (±10 minutes) and 4 hours (±15 minutes), post-treatment administration. Cats were observed past 4 hours post-treatment administration, as necessary or until resolution of abnormal observations.
Cats were weighed on days 0, 7, 14, and 28. Normal body weights were reported for 24 of the 28 cats. Two cats (one in Cohort 1 and one in Cohort 3) had abnormal (low) weight on day 0, but normal weight by day 28.
Cats' ability to eat was assessed on days 0, 7, 14, and 28. The majority of the cats' ability to eat improved throughout the study. On day 28, no differences in ability to eat were detected between cohorts.

The nature of data set [3]: Preliminary safety study of oral topical application of RTX in cats with gingival inflammation. It counts as in vivo, cat. An excerpt:
This example provides safety data related to oral topical application of RTX. The primary objective of this study was to determine the initial tolerance of RTX when it is topically administered under anesthesia to the oral cavity of cats as a single treatment.
Four cats were enrolled in this study. Each cat presented with mild to moderate gingival inflammation. The cats were allocated to two treatment groups according to severity of gingival inflammation. Group 1 cats, those with mild cases of gingivitis, were dosed on study Day 0 with a diluted RTX solution (12.5 μg/mL) applied topically to the maxillary and mandibular gingival tissue (buccal and palatal/lingual gingiva). Group 2 cats, those with current or recent historical moderate gingivitis, underwent the same treatment regimen on study Day 0 with the addition of application to the palatal and sublingual tissue.
Total dose of RTX tested per cat (diluted with sterile saline for a total volume of 2 mL) was: 17.5 μg (Group 1 cat), 23.75 μg (Group 1 cat), or 25 μg (Group 2 cats) RTX. One cat (pudding) received 17.5 μg RTX, one cat (Clank) received 23.75 μg RTX, and two cats (Forbes and Bianca) received 25 μg RTX. A single application of RTX was topically applied inside the mouth of each cat. The RTX was applied to the entire mouth.
Cats were anesthetized during treatment administration and for 30 minutes post-dose. Diphenhydramine (2 mg/kg, IM) was given as an anesthetic pre-treatment a minimum of 30 minutes prior to dosing. Induction was then performed using a combination of medetomidine 0.03 mg/kg, ketamine 5 mg/kg and butorphanol 0.2 mg/kg; dose volume 0.1 mL/kg, IM. Following application of a lidocaine hydrochloride spray to the larynx, intubation was performed and anesthesia was maintained using an isofluraneoxygen mixture. Standard anesthetic monitoring of vital signs was performed approximately every 5-10 minutes following dosing and precautions were taken to avoid low body temperature throughout the procedure. Cats remained under anesthesia for 30 minutes following dosing for additional monitoring. Upon removal from anesthetic, reversal drug atipamezole (0.2 mg/kg, IM) was administered.
To assess RTX tolerance, adverse event monitoring was performed using the following parameters: measurement of vital signs during anesthesia; physical examinations performed 0.25, 0.5, 1, 2, 3 and 4 hours following recovery from anesthesia (i.e. removal of endotracheal tube) as well as 1, 3 and 7 days post-dose in both the morning (AM) and afternoon (PM); twice daily clinical observations; daily food consumption measurement.

The test system of data set [4] is oral inflammation, Feline Chronic Gingivostomatitis (FCGS). Nature of the data set: Stomatitis Disease Activity Index (SDAI) in client-owned cats after oral topical RTX. It counts as in vivo, cat. As to conditions: for treatment success (SDAI): success = 20% reduction in Day 28 SDAI vs Day 0 (post-hoc). Here is the method:
as §1
Stomatitis Disease Activity Index (SDAI)—This semi-quantitative assessment of oral inflammation was carried out prior to the beginning of treatment (day 0) and at day 28 (at the conclusion of treatment). Cats were assessed by owner for cat's interest in food and ability to eat, perceived comfort, grooming behavior, and activity levels. Each assessment was graded from 0 to 3 (0=no problem; 3=severe problems).
The average of the scores in Table 1 (total score divided by 4) were entered in the “owner evaluation” box on the initial SDAI (Stomatitis Disease Activity Index) tabulation sheet of Table 2. The rest of the questions on SDAI survey were completed by the veterinarian prior to the beginning of treatment (day 0) and at day 28 (at the conclusion of treatment). Each assessment was graded from 0 to 3 (0=no problem; 3=severe problems) as follows:
Treatment success using the SDAI metric was defined post-hoc as a 20% reduction in the Day 28 SDAI compared to Day 0. Based on this definition, the percentage success was 100.0%, 80.0% and 44.4% for Cohorts 1, 2, and 3 respectively. The discrepancy in the success rate of Cohort 3 using the two metrics may be due to a higher baseline SDAI score.
as §2
RTX solution was applied using a clean cotton tip applicator directly to the visible lesions and adjacent tissue. The non-target dosing areas (caudal mouth/pharynx) were protected using a 4×4 gauze. Any targeted area was dried with sterile gauze or using the air-water syringe system. The saturated applicator for was gently pressed along the targeted areas for 10 seconds. Two to three coats per lesion were applied using the same cotton tip applicator. The area was allowed to dry for a few seconds before moving to the next lesion by exposing the area to the air or by gently using the air-water syringe system. When possible, and in absence of active bleeding due to manipulation, the RTX solution was allowed to drip into the gingival sulcus. If a target area was actively bleeding, an attempt to decrease or stop the bleeding was made before the RTX application.

Sequence of TRPV1 receptor (Q8NER1 whole entry): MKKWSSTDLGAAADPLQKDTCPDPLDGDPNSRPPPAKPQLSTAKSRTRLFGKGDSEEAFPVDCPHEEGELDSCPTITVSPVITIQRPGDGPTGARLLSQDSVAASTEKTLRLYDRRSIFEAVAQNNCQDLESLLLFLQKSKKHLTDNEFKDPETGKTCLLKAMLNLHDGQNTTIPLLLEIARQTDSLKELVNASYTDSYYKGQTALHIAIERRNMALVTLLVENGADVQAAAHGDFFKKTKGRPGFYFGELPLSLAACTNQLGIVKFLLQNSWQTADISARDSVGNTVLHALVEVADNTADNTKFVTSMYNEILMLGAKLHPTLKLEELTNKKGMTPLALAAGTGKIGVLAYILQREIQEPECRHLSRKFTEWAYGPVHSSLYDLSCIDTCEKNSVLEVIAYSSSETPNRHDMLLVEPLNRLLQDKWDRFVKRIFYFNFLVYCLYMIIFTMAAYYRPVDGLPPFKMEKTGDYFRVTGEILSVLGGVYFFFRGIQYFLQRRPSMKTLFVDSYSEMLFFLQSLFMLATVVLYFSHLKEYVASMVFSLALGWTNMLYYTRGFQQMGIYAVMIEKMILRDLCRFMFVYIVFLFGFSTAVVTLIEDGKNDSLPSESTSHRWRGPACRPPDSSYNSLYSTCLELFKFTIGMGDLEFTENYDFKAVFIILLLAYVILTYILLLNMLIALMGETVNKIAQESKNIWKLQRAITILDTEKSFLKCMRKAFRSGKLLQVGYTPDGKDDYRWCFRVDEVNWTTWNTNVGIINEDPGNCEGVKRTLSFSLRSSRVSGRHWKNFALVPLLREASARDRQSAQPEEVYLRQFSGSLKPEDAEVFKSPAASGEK

For `C=C(C)[C@]12C[C@@H](C)[C@@]34O[C@](Cc5ccccc5)(O[C@@H]1[C@@H]3C=C(COC(=O)Cc1ccc(O)c(OC)c1)C[C@]1(O)C(=O)C(C)=C[C@@H]41)O2` [RTX, resiniferatoxin], on TRPV1 receptor (TRPV1 receptor agonist), the “potency relative to capsaicin” value is on record as 1000-10,000 times. The Scoville scale on TRPV1 receptor was 16 billion. Also, the “control of pain and inflammation” value in data set [1] (6.25 μg RTX, 28 days) is “effective in controlling pain and inflammation for 28 days”. Besides, the “treatment success rate (VSOM)” value amounted to 90.0% in data set [1] (Cohort 1, 6.25 μg RTX topical oral); 80.0% in data set [1] (Cohort 2, 12.5 μg RTX topical oral); 88.9% in data set [1] (Cohort 3, 25 μg RTX topical oral). The “treatment success (VSOM) on Day 14” value in data set [1] (Cohort 2, 12.5 μg RTX, Day 14) is listed as “all cats in Cohort 2 were a success”. The “severity of adverse events” value in data set [2] (6.25-25 μg RTX topical oral) is “Most of the AE were graded as mild”. The “serious adverse events (SAE) during in-life” value in data set [2] (28 cats, 6.25-25 μg RTX topical oral) was “One”. Also, in data set [2] (28 cats, 6.25-25 μg RTX topical oral, 28 days), the mortality result is “No mortality”. Also, in data set [2] (application on inflamed oral mucosa), the “signs of systemic RTX exposure” value is “did not exhibit signs of systemic RTX exposure”. The ability to eat entry in data set [2] (assessed days 0, 7, 14, 28, all cohorts) was “most of the cats in all cohorts that completed the study had an improvement in the ability to eat”. For the same compound, in data set [2] (weighed days 0, 7, 14, 28), the “cats with normal body weights” value is listed as 24 of the 28. For the same compound, the “time to resolution of clinical signs (panting, hypersalivation, tachycardia, restlessness) post-treatment” value in data set [2] (without medical intervention) is ≤ 3 h. For the same compound, the “time to resolution of mild increases in severity of gingivitis” value in data set [3] (2 cats, without intervention) was ≤ 3 days post-dose. The food consumption entry in data set [3] (8 days following RTX administration) is recorded as “returned to normal by day seven”. Further, the body weight entry in data set [3] (day 8 vs before administration) was “by day 8 the weight was back to normal”. Besides, the tolerability result in data set [3] (single topical oral application 17.5-25 μg RTX (12.5 μg/mL), 4 cats, followed 8 days) was “well tolerated with only mild and transient adverse events”. The “treatment success (SDAI)” value in data set [4] (Cohort 1, 6.25 μg RTX) was 100.0%; in data set [4] (Cohort 2, 12.5 μg RTX) it was 80.0%; in data set [4] (Cohort 3, 25 μg RTX) it was 44.4%. In addition, the “percent improvement in SDAI” value in data set [4] (day 0 to day 28) is listed as “about 60%”.
